Source: patent US6194601A, “5,6-dihydronaphthalenyl derivatives having retinoid-like activity” (Bristol-Myers Squibb Company, priority 1999, dated 2001)
“Also recorded” adds a separate entry of the source. Where two headings read alike, the source gives them in different places.

Assays:
rabbit skin = rabbit skin irritation model; assay type: in vivo; settings: for Erythema score: Table 3, topical daily 14 days, ethanol; for IS3, irritation relative to TRA: species not given
rhino mice [1] = test: rhino mouse assay, comedolytic activity (utriculi size reduction); assay type: in vivo; settings: for ED30: Table 4, topical activity; for ED30 (30% reduction in utriculi size): rhino mouse, FIG. 1 study
Protocol: (§1) The comedolytic activity of the compounds of the instant application has been evaluated by the rhino mouse assay model. The compounds were administered daily to rhino mice topically in ethanol at various concentrations for 5 days. Signs of skin irritation are evaluated at day 5 by visual inspection of the mouse skin and graded for edema, erythema (redness) and scaling (flakiness) with scales of 1-5 and 1-4, respectively. Skin samples were taken at day 7 and processed for image analysis to measure the size of utriculi.

rhino mice [2] = tested on: rhino mice; design: species or system rhino mouse; settings: mouse, in vivo
Protocol: as §1

RARγ = molecular target: T1, RARγ (Homo sapiens, UniProt P13631); test: apparent Kd for binding to RARγ; settings: read-out: Kd (γ)
T1 sequence (P13631 1-454): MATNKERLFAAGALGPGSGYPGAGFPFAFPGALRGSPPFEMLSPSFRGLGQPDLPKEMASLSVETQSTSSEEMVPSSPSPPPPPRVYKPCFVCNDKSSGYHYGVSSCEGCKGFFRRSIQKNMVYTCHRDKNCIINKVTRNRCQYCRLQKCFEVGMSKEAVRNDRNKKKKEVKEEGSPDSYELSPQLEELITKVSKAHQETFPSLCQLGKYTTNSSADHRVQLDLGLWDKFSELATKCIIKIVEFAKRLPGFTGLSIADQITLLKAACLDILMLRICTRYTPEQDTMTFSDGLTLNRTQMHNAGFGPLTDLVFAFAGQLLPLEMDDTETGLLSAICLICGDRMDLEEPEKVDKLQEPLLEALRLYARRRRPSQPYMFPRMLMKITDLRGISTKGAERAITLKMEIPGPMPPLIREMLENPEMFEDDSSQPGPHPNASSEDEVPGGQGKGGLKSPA

RARβ = molecular target: T2, RARβ (Homo sapiens, UniProt P10826); test: apparent Kd for binding to RARβ; settings: read-out: Kd (β)
T2 sequence (P10826 1-455): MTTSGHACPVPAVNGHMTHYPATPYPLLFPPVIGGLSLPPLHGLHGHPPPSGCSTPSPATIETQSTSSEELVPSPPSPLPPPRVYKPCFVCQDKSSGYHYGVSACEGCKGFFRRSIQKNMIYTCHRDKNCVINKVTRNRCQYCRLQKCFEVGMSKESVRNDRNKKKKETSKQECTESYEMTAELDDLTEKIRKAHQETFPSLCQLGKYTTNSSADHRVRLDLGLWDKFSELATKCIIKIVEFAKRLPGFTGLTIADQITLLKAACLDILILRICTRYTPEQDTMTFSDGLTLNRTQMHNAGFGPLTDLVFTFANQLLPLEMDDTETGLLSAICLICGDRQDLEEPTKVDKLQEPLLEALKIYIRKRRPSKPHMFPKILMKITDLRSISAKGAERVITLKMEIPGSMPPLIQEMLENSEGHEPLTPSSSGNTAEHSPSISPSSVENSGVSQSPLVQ

RARα = molecular target: T3, RARα (Homo sapiens, UniProt P10276); test: apparent Kd for binding to RARα; settings: read-out: Kd (α)
T3 sequence (P10276 1-462): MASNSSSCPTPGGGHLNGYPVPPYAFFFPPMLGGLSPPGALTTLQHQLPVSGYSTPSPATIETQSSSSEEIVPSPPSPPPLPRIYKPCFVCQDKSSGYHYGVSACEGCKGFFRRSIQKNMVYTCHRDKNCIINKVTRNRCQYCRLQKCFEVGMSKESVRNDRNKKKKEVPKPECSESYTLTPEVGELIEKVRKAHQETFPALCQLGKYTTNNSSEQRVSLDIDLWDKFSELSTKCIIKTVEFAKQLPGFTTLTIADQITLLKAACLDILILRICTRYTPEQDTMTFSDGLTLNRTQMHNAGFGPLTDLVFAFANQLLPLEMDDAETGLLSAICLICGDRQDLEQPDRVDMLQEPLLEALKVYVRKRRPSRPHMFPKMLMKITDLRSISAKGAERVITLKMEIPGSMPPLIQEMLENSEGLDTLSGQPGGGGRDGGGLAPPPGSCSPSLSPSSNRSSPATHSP

[3] = tested on: Detroit 562 Pharyngeal CA; test: inhibition of cell proliferation (3H-thymidine uptake), Detroit 562; assay type: cell-based; settings: Homo sapiens
Protocol: (§2) The compounds of the present invention have been also tested as inhibitors of cell proliferation (^3 H-thymidine uptake). Cells were plated on 96-well plates at a pre-determined density so that 80% cellular confluency is reached by day 7. 24 hr after plating, culture media was changed and cells were treated with the appropriate drug or vehicle (day 0). Culture media was changed on days 3 and 6. Cellular proliferation was measured on Day 7 by quantitating the amount of tritiated thymidine ([3H]-TdR) incorporated into the celular DNA (Odham, K. G. (1977) in: Radiotracer Techniques and Applications, edited by E. A. Evans and M. Murawatsu; M. Dekker Inc. New York; 2, 823).

Calu-3 Lung CA = test: inhibition of cell proliferation (3H-thymidine uptake), Calu-3; assay type: cell-based; settings: Homo sapiens
Protocol: as §2

MCF7 Breast CA (E2-dep.) = test: inhibition of cell proliferation (3H-thymidine uptake), MCF7; assay type: cell-based; settings: Homo sapiens
Protocol: as §2

SCC 25 tongue SCC = test: inhibition of cell proliferation (3H-thymidine uptake), SCC 25; assay type: cell-based; settings: Homo sapiens
Protocol: as §2

[4] = tested on: H3396 Breast CA (E2-dep.); test: inhibition of cell proliferation (3H-thymidine uptake), H3396; assay type: cell-based; settings: Homo sapiens
Protocol: as §2

[5] = tested on: SK-BR-3 Breast CA (E2-indep.); test: inhibition of cell proliferation (3H-thymidine uptake), SK-BR-3; assay type: cell-based; settings: Homo sapiens
Protocol: as §2

[6] = rabbit skin irritation model; assay type: in vivo; settings: rabbit, in vivo, topical or ocular; from IS3 and ED30, Table 4; read-out: Therapeutic index
[7] = tested on: H3396 (ER+) breast carcinoma subcutaneous xenografts; test: tumor growth inhibition in athymic mice bearing H3396 xenografts; assay type: in vivo; settings: intraperitoneal, every two days for 10 days
Protocol: This potent anti-proliferative activity is also translated in vivo on athymic mice bearing H3396 (ER+) breast carcinoma subcutaneous xenografts (P. A. Trail, et al., Cancer Research, 52, p. 5693-5700 (1992). Athymic mice were implanted with 0.72 mg (60-day release) estradiol pellets (Innovative Research of America, Toledo, Ohio) one day prior to the implantation of H3396 tumors. H3396 tumors were measured in two perpendicular directions at weekly or biweekly intervals, using calipers. Tumor volume was calculated according to the equation: V=I×w^2 /2, where V=volume (mm3), I=measurement of longest axis (mm), and w=measurement of axis perpendicular to 1. In general, there were 8-10 mice in each control or treatment group. Data are presented as median tumor size for control or treated groups. Antitumor activity is expressed in terms of median TVDD values, where TVDD=T-C/TVDT; T-C is defined as the median time (days) for treated tumors to reach 500 mm3 in size minus the median time for control tumors to reach 500 mm3 in size and TVDT is the time (days) for control tumors to double in volume (250-500 mm3).
In this experiment, the tumor growth delay was equivalent to 1.2 log cell kill at 30 mg/kg.

[8] = species and concentration not given
[9] = topical daily in ethanol, 5 days
[10] = 7 days, 3H-thymidine, read-out: IC50

In the case of CCC(C)(/C=C\C1=CCC(C)(C)c2ccc(/C=C/c3ccc(C(=O)O)cc3)cc21)CC [Compound B, 4-[(E)-(5,6-Dihydro-5,5-dimethyl-8-((Z)-3-methyl-3-ethyl-1-penten-1-yl)-2-naphthalenyl)ethenyl]benzoic acid], the Erythema score (rabbit skin; concentration not given) is reported as 2.8, the “IS3, irritation in words” value (rabbit skin; [8]) is reported as “Irritating” and the “IS3, irritation relative to TRA” value (rabbit skin) is reported as “<TRA”. For the same compound, the “Utriculi reduction (at 1.6 mM, printed in the 1 mM column)” value (rhino mice [1]; 1.6 mM, topical daily in ethanol, 5 days) was 100%.
In the case of CC(C)(O)/C=C\C1=CCC(C)(C)c2ccc(/C=C/c3ccc(C(=O)O)cc3)cc21 [II, 4-[(E)-(5,6-Dihydro-5,5-dimethyl-8-((Z)-3-methyl-3-hydroxyl-1-buten-1-yl)-2-naphthalenyl)ethenyl]benzoic acid], the “IS3, irritation in words” value (rhino mice [2]) is reported as “No irritation”, the Erythema score (rabbit skin; concentration not given) is reported as 0 and the Kd (RARγ) is reported as 1.57 nM. For the same compound, the Kd (RARβ) was 2.19 nM, the “Utriculi reduction at 0.1 mM” value (rhino mice [1]; [9]) was 8.4% and the “Utriculi reduction at 1 mM” value (rhino mice [1]; [9]) was 84%. The ED30 (rhino mice [1]) was 400000 nM and the Kd (RARα) was 1.6 nM.
CC1=C(/C=C/C(C)=C/C=C/C(C)=C/C(=O)O)C(C)(C)CCC1 [TRA, All-trans retinoic acid] showed an IC50 [3] of over 10000 nM, an IC50 (Calu-3 Lung CA) of 100 nM and an IC50 (MCF7 Breast CA (E2-dep.)) of 650 nM. For the same compound, the Erythema score (rabbit skin; concentration not given) was 4.8, the “IS3 (concentration necessary to achieve an irritation score of 3)” value (rabbit skin; Table 4) was 0.3 mM and the “irritation to rabbit skin” value (rabbit skin; concentrations above 0.1 mM, 14 days, FIG. 2) was “caused significant irritation to rabbit skin”. The IC50 (SCC 25 tongue SCC) was 50 nM, the IC50 [4] was 300 nM and the “Utriculi reduction at 0.1 mM” value (rhino mice [1]; [9]) was 64%. For the same compound, the “Utriculi reduction at 1 mM” value (rhino mice [1]; [9]) was 100%, the ED30 (rhino mice [1]) was 15000 nM and the “ED30 (30% reduction in utriculi size)” value (rhino mice [1]) was 28000 nM. It also gave an IC50 [5] of 1 nM.
For “4-[(E)-(5,6-Dihydro-5,5-dimethyl-8-(1-methyl-1-ethane-thio)-2-naphthalenyl)ethenyl]benzoic acid [Compound D]”, the Erythema score (rabbit skin; concentration not given) was 5.7, the “IS3, irritation in words” value (rabbit skin; [8]) was “Very irritating” and the “IS3, irritation relative to TRA” value (rabbit skin) was “>>TRA”. For the same compound, the “Utriculi reduction at 0.1 mM” value (rhino mice [1]; [9]) was 85.4% and the ED30 (rhino mice [1]) was under 100000 nM.
For CC(C)(C)/C=C\C1=CCC(C)(C)c2ccc(/C=C/c3ccc(C(=O)O)cc3)cc21 [Compound C, 4-[(E)-(5,6-Dihydro-5,5-dimethyl-8-((Z)-3,3-dimethyl-1-buten-1-yl)-2-naphthalenyl)ethenyl]benzoic acid], the “IS3, irritation in words” value (rhino mice [2]) was “Very irritating”, the selectivity ratio [6] was under 20 and the Erythema score (rabbit skin; concentration not given) was 6.0. The “IS3, irritation in words” value (rabbit skin; in rabbits, concentration not given) was “Very irritating”, the “Utriculi reduction (at 0.01 mM, printed in the 0.1 mM column)” value (rhino mice [1]; 0.01 mM, topical daily in ethanol, 5 days) was 30% and the ED30 (rhino mice [1]) was 80000 nM.
With CC(C)(C)C#CC1=CCC(C)(C)c2ccc(/C=C/c3ccc(C(=O)O)cc3)cc21 [Compound I, 4-[(E)-(5,6-Dihydro-5,5-dimethyl-8-(3,3-dimethyl-1-butyn-1-yl)-2-naphthalenyl)ethenyl]benzoic acid] the IC50 [3, 10] was 5500 nM, the IC50 (Calu-3 Lung CA; [10]) was 10 nM and the IC50 (MCF7 Breast CA (E2-dep.); [10]) was 6500 nM. For the same compound, the selectivity ratio [6] was over 99, the “therapeutic index compared with TRA and analogs” value (rabbit skin) was “highly superior to TRA and to most of the closely related analogs” and the “irritation to rabbit skin” value (rabbit skin; 1 mM, 14 days, FIG. 2) was “did not cause any irritation”. The “irritation to rabbit skin” value (rabbit skin; 5 mM) was “did not cause any signs of irritation to rabbit skin; also recorded: did not show any signs of irritation”, the Erythema score (rabbit skin; concentration not given) was 0 and the “IS3, irritation in words” value (rabbit skin; in rabbits at 5 mM) was “No irritation”. It also gave a Kd (RARγ) of 25 nM, an IC50 (SCC 25 tongue SCC; [10]) of 9500 nM and an IC50 [4, 10] of 40 nM. The Kd (RARβ) was 1.26 nM, the “tumor growth delay equivalent (log cell kill)” value ([7]; 30 mg/kg) was 1.2 log cell kill and the “potency in inhibiting tumor growth compared with doxorubicin” value ([7]; FIG. 3) was “as potent as doxorubicin”. For the same compound, the “Utriculi reduction at 0.1 mM” value (rhino mice [1]; [9]) was 72%, the “Utriculi reduction at 1 mM” value (rhino mice [1]; [9]) was 100% and the ED30 (rhino mice [1]) was 55000 nM. The “ED30 (30% reduction in utriculi size)” value (rhino mice [1]) was 55000 nM, the Kd (RARα) was 2.23 nM and the IC50 [5, 10] was 8 nM.
With CC1=C(C#CC(C)(C)C)c2cc(/C=C/c3ccc(C(=O)O)cc3)ccc2C(C)(C)C1 [Compound A, 4-[(E)-(5,6-Dihydro-5,5-dimethyl-7-methyl-8-(3,3-dimethyl-1-butyn-1-yl)-2-naphthalenyl)ethenyl]benzoic acid] the “IS3, irritation in words” value (rhino mice [2]) was “Very irritating”, the Erythema score (rabbit skin; concentration not given) was 3.1 and the “Utriculi reduction at 0.1 mM” value (rhino mice [1]; [9]) was 100%. It also gave an ED30 (rhino mice [1]) of under 100000 nM.
